Source: US20260176320A1, “MODULATORS OF G-PROTEIN COUPLED RECEPTORS” (priority 2018, published 2026)
Read-outs that look alike come from different tables or passages of the source.

Assays:
[1] = target: GLP-1R (Homo sapiens, UniProt P43220); experiment: HitHunter cAMP assay (GLP-1R); type: cell-based; conditions: cAMP; for EC50: EC50 GLP-1R/nM; for Emax: read-out: (Emax) GLP-1R
How it was run: (§1)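 Duplicate 22-point, 2-fold agonist titrations applied to receptor-expressing suspension cells in IBMX-containing HBSS; 30 min RT stimulation. Read: luminescent cAMP immunocompetition after O/N dark incubation.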

[2] = target: T1, GIP-R (Homo sapiens, UniProt P48546); experiment: HitHunter cAMP assay (GIP-R); type: cell-based; conditions: cAMP; for EC50: EC50 GIP-R/nM; for Emax: read-out: (Emax) GIP-R
T1 sequence (P48546 22-466): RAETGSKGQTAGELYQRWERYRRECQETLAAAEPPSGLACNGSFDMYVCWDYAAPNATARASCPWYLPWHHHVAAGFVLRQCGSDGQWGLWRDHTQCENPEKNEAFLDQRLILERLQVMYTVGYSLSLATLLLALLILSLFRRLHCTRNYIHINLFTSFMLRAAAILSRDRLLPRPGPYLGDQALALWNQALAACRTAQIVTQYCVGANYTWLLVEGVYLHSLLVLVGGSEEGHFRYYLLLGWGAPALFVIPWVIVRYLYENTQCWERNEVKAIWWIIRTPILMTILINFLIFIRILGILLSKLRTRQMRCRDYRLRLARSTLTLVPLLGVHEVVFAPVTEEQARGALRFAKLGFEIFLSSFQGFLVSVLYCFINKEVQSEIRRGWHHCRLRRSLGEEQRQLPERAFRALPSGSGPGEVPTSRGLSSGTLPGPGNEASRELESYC
How it was run: as §1

Chain of GLP-1R (P43220 24-463): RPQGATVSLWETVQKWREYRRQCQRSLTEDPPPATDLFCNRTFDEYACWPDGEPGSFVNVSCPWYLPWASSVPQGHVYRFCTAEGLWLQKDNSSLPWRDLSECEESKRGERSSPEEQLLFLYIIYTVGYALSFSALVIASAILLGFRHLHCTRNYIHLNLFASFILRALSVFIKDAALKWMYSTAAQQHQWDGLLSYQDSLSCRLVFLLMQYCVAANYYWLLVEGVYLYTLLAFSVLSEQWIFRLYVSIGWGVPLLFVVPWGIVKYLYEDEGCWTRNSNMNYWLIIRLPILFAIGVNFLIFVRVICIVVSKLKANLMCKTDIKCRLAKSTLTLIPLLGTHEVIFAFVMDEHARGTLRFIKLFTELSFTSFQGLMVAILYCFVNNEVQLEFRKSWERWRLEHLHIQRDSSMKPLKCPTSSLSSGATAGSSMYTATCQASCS

Q: `CC[C@H](C)[C@H](NC(=O)[C@H](CO)NC(=O)[C@H](Cc1ccc(O)cc1)NC(=O)[C@H](CC(=O)O)NC(=O)[C@H](CO)NC(=O)[C@@H](NC(=O)[C@H](Cc1ccccc1)NC(=O)[C@@H](NC(=O)CNC(=O)[C@H](CCC(=O)O)NC(=O)CSCC(=O)NCCN1C(=O)[C@H]2C[C@H]2C1=O)[C@@H](C)O)[C@@H](C)O)C(=O)N[C@@H](Cc1ccc(O)cc1)C(=O)N[C@@H](CC(C)C)C(=O)N[C@@H](CC(=O)O)C(=O)N[C@@H](CCCCN)C(=O)N[C@@H](CCC(N)=O)C(=O)N[C@@H](C)C(=O)N[C@@H](C)C(=O)NC(C)(C)C(=O)N[C@@H](CCC(=O)O)C(=O)N[C@@H](Cc1ccccc1)C(=O)N[C@H](C(=O)N[C@@H](CC(N)=O)C(=O)N[C@@H](Cc1c[nH]c2ccccc12)C(=O)N[C@@H](CC(C)C)C(=O)N[C@@H](CC(C)C)C(=O)N[C@@H](C)C(=O)NCC(=O)NCC(=O)N1CCC[C@H]1C(=O)N[C@@H](CO)C(=O)N[C@@H](CO)C(=O)NCC(=O)N[C@@H](C)C(=O)N1CCC[C@H]1C(=O)N1CCC[C@H]1C(=O)N1CCC[C@H]1C(=O)N[C@@H](CO)C(=O)N[C@@H](CCCCN)C(N)=O)C(C)C` [Compound 109] was tested. Which EC50 ([1]; Table 3) did it give?
A: Its EC50 is 1 to 10 nM.

Q: And the EC50 ([1]; Table 3A)?
A: The EC50 was 1 to 10 nM.

Q: And the Emax ([1]; Table 3)?
A: The Emax was 101%.

Q: What about the Emax ([1]; Table 3A) of the same molecule?
A: Its Emax is 101%.

Q: What about the EC50 ([2]; Table 3) of the same molecule?
A: The EC50 was 10 to 100 nM.

Q: What about the EC50 ([2]; Table 3A) of the same molecule?
A: Its EC50 is 10 to 100 nM.

Q: And the Emax ([2]; Table 3)?
A: The Emax was 36%.

Q: What about the Emax ([2]; Table 3A) of the same molecule?
A: Its Emax is 36%.

Q: For `CC[C@H](C)[C@H](NC(=O)[C@H](CO)NC(=O)[C@H](Cc1ccc(O)cc1)NC(=O)[C@H](CC(=O)O)NC(=O)[C@H](CO)NC(=O)[C@@H](NC(=O)[C@H](Cc1ccccc1)NC(=O)[C@@H](NC(=O)CNC(=O)[C@H](CCC(=O)O)NC(=O)CSCC(=O)NCCN1C(=O)[C@@H]2[C@H](C1=O)C2(C)C)[C@@H](C)O)[C@@H](C)O)C(=O)N[C@@H](Cc1ccc(O)cc1)C(=O)N[C@@H](CC(C)C)C(=O)N[C@@H](CC(=O)O)C(=O)N[C@@H](CCCCN)C(=O)N[C@@H](CCC(N)=O)C(=O)N[C@@H](C)C(=O)N[C@@H](C)C(=O)NC(C)(C)C(=O)N[C@@H](CCC(=O)O)C(=O)N[C@@H](Cc1ccccc1)C(=O)N[C@H](C(=O)N[C@@H](CC(N)=O)C(=O)N[C@@H](Cc1c[nH]c2ccccc12)C(=O)N[C@@H](CC(C)C)C(=O)N[C@@H](CC(C)C)C(=O)N[C@@H](C)C(=O)NCC(=O)NCC(=O)N1CCC[C@H]1C(=O)N[C@@H](CO)C(=O)N[C@@H](CO)C(=O)NCC(=O)N[C@@H](C)C(=O)N1CCC[C@H]1C(=O)N1CCC[C@H]1C(=O)N1CCC[C@H]1C(=O)N[C@@H](CO)C(=O)N[C@@H](CCCCN)C(N)=O)C(C)C` [Compound 110], which EC50 ([1]; Table 3) is on record?
A: Its EC50 is 10 to 100 nM.

Q: What about the EC50 ([1]; Table 3A) of the same molecule?
A: The EC50 was 10 to 100 nM.

Q: And the Emax ([1]; Table 3)?
A: The Emax was 88%.

Q: And the Emax ([1]; Table 3A)?
A: Its Emax is 88%.

Q: And the EC50 ([2]; Table 3)?
A: The EC50 was 10 to 100 nM.

Q: What about the EC50 ([2]; Table 3A) of the same molecule?
A: Its EC50 is 10 to 100 nM.

Q: What about the Emax ([2]; Table 3) of the same molecule?
A: The Emax was 33%.

Q: What about the Emax ([2]; Table 3A) of the same molecule?
A: The Emax was 33%.
